The text below walks through data of patent US10807993B2, “Dihydrochromene derivatives” (Sumitomo Dainippon Pharma Co., Ltd., priority 2018, dated 2020).

Each structure is given as a SMILES string.

The test system of one series is HT-29 cells. Briefly: Inhibition test for sphere formation assay of cancer cells. The format is cell-based. As to conditions: for IC50: sphere culture (ultra-low attachment, serum-free), 4 days, CellTiter-Glo, read-out: Sphere IC50 value (concentration for 50% inhibition of cell proliferation). The protocol: Reliable methods established for measuring the self-renewal ability of cells which is one of the CSC's properties include a method for measuring the sphere-forming ability of cancer cells in non-adherent condition in the absence of serum (Cancer Res 65, 5506-5511 (2005)). HT-29 cells were available from American Type Culture Collection (ATCC). HT-29 cells were cultured at 37° C. under 5% CO2 using the McCoy's 5a medium containing 10% fetal bovine serum (FBS) and 1% penicillin/streptomycin. HT-29 cells were seeded in a 384 Well Black Clear Bottom Ultra-Low Attachment Microplate (Corning Cat. No. 3827) in an amount of 350-800 cells/well using the DMEM/F12 medium containing 2% B27 supplement (GIBCO), 20 ng/mL epidermal growth factor (EGF) (peprotech), 10 ng/mL basic fibroblast growth factor (bFGF) (peprotech), 5 μg/mL insulin (Sigma), and 1% penicillin/streptomycin. Each test compound was added into each well to adjust the final concentration of DMSO to 0.1%, and the cells were cultured for 4 days. The number of viable cells in each well was then measured with CellTiter-Glo™ Luminescent Cell Viability Assay (Promega) to calculate the concentration of each test compound for 50% inhibition of cell proliferation (Sphere IC50 value; […])
The experiment of Test 1 was performed for each compound of each Example. The concentration of each test compound for 50% inhibition of cell proliferation (Sphere IC50 value; μmol/L) is shown in the following Table.
On the technique in general: Cellular ATP, detected with luciferase, serves as a proxy for viable cell number.

For a further series, the target named is hERG (Homo sapiens (Human), UniProt Q12809).
Chain of hERG (Q12809 whole entry): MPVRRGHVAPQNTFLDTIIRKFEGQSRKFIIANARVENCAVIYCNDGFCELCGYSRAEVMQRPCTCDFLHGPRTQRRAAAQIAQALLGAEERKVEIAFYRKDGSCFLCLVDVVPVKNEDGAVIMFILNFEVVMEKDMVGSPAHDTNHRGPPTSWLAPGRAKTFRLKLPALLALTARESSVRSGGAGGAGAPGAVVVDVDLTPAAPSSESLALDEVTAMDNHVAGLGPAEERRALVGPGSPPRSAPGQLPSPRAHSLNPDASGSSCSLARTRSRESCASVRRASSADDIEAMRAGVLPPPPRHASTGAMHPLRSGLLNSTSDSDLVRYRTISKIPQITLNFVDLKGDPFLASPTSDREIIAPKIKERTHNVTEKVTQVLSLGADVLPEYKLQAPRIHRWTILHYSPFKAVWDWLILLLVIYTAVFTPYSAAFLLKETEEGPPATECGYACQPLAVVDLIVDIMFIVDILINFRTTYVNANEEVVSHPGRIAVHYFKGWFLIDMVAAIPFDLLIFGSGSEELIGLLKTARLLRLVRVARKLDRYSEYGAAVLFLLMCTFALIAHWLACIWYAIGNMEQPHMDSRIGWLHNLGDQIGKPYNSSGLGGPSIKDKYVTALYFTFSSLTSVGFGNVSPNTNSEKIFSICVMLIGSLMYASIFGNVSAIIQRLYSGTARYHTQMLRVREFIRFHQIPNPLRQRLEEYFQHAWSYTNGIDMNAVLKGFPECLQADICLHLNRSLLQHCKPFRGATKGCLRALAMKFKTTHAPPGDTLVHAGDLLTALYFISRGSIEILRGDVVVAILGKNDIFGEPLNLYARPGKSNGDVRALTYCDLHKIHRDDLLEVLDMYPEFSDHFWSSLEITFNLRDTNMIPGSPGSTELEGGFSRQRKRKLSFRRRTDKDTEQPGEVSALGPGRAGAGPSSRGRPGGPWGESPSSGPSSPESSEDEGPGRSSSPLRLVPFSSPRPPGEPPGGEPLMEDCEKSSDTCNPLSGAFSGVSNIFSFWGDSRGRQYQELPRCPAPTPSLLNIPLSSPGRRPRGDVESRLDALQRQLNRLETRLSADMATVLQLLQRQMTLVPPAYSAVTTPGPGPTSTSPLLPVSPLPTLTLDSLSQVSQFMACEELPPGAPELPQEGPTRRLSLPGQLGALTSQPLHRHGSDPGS

Protocol for hERG: To a cultured CHO cell strain which stably expresses hERG was added each test compound to adjust the final concentration of DMSO to 0.0135 to 0.5%. The hERG current was measured with QPatch HT (Sophion Inc.), and the concentration at which 50% of the hERG current was inhibited by each test compound (IC50 value; μM) was calculated.
The compounds of Examples were tested according to Test 2. And, the hERG/HT-29 was calculated by dividing the compound concentration obtained in Test 2 (50% of the hERG current is inhibited) by the compound concentration obtained in Test 1 (50% of the proliferation of HT-29 cells is inhibited).

For `Cc1nccn1CC(=O)N1CCC2(CC1)COC1c3ccc(Br)cc3OC(C)(C)C1C2` (stereo not shown) [Example 8], the IC50 with HT-29 cells came to 0.31 µM. At hERG, the IC50 is 0.3 µM and the hERG/HT-29 was 0.97.
Regarding `CC(=O)NCCc1nccn1CCN1CCC2(CC1)COC1c3cc(Cl)ccc3OC(C)(C)C1C2` (stereo not shown) [Example 60], the figures for the IC50 in the series on HT-29 cells and on hERG were 0.16 µM and 1.1 µM, respectively. The hERG/HT-29 on hERG is 6.88.
Take `CC1(C)Oc2ccc(Cl)cc2C2OCC3(CCN(CCn4ccnc4C#N)CC3)CC21` (stereo not shown) [Example 58]: the IC50 with HT-29 cells came to 0.07 µM. At hERG, this compound displayed an IC50 of 1.9 µM and a hERG/HT-29 of 27.1.
Consider `Cc1c(CO)ncn1CC(=O)N1CCC2(CC1)COC1c3cc(Cl)ccc3OC(C)(C)C1C2` (stereo not shown) [Example 14], for which the values for the IC50 in the series with HT-29 cells and at hERG were 0.4 µM and 0.3 µM, respectively. The same compound came in with a hERG/HT-29 on hERG of 0.75.
For the compound `Cc1nccn1CCN1CCC2(CC1)COC1c3cc(F)ccc3OC(C)(C)C1C2` (stereo not shown) [Example 45], the IC50 in the series on HT-29 cells is under 0.01 µM. Besides, the “activity for inhibiting cell proliferation in the sphere culture condition” value in the series with HT-29 cells (sphere culture, summary in words) is on record as “potent activity”. At hERG, this compound yielded an IC50 of 0.4 µM and a hERG/HT-29 of over 40.
In the case of `Cc1nccn1CCN1CCC2(CC1)COC1c3ccc(Cl)cc3OC(C)(C)C1C2` (stereo not shown) [Example 50], the IC50 in the series with HT-29 cells was 0.03 µM; at hERG, 1.5 µM. Moreover, the hERG/HT-29 at hERG was 50.
Regarding `CC1(C)Oc2ccc(Cl)cc2C2OCC3(CCN(C(=O)Cn4ccnc4CO)CC3)CC21` (stereo not shown) [Example 15], the figures for the IC50 in the series on HT-29 cells and at hERG were 0.3 µM and 1.6 µM, respectively. Also, the hERG/HT-29 at hERG is 5.33.
